Source: PubChem BioAssay (NCI)
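All cell lines were grown in 96-well plates and treated with compound for 48 hours. TGI is the concentration that stops growth completely.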 Where a SMILES comes first, the peptide text is derived from it.

What was measured:
Experiment in all cases: DTP human tumour cell line panel, 48 h
[1] = tested on: HOP-62 NSCLC
[2] = tested on: OVCAR-5 ovarian
[3] = tested on: PC-3 prostate
[4] = tested on: MDA-MB-231 breast
[5] = tested on: NCI-H522 lung
[6] = tested on: HL-60(TB) leukemia
[7] = tested on: SK-MEL-5 melanoma
[8] = tested on: M14 melanoma
[9] = tested on: OVCAR-8 ovarian
[10] = tested on: MALME-3M melanoma
[11] = tested on: MOLT-4 leukemia
[12] = tested on: BT-549 breast
[13] = tested on: KM12 colon
[14] = tested on: SN12C renal
[15] = tested on: SNB-19 CNS
[16] = tested on: NCI/ADR-RES ovarian
[17] = tested on: RPMI-8226 leukemia
[18] = tested on: HS 578T breast
[19] = tested on: NCI-H460 lung

`CCOC(=O)c1c(-c2ccc(Br)cc2)ccn1C` gave a TGI [1] of over 10 µM, a TGI [2] of over 10 µM and a TGI [3] of over 10 µM. It also gave a TGI [4] of over 10 µM, a TGI [5] of over 10 µM and a TGI [6] of over 10 µM. It also gave a TGI [7] of over 10 µM, a TGI [8] of over 10 µM and a TGI [9] of over 10 µM. It also gave a TGI [10] of over 10 µM, a TGI [11] of over 10 µM and a TGI [12] of over 10 µM. It also gave a TGI [13] of over 10 µM, a TGI [14] of over 10 µM and a TGI [15] of over 10 µM. For the same molecule, the TGI [16] was over 10 µM, the TGI [17] was over 10 µM and the TGI [18] was over 10 µM. The TGI [19] was over 10 µM.

For `CC(=O)c1cccc(NC(=O)C(=O)C(c2cnc3ccc([N+](=O)[O-])cc3n2)[N+](=O)[O-])c1` (stereo not drawn), the TGI [1] was over 100 µM, the TGI [2] was over 100 µM and the TGI [3] was over 100 µM. It also gave a TGI [4] of over 100 µM, a TGI [6] of over 100 µM and a TGI [8] of over 100 µM. The TGI [9] was over 100 µM, the TGI [10] was over 100 µM and the TGI [11] was over 100 µM. For the same molecule, the TGI [12] was over 100 µM, the TGI [13] was over 100 µM and the TGI [14] was over 100 µM. For the same molecule, the TGI [15] was over 100 µM, the TGI [16] was over 100 µM and the TGI [17] was over 100 µM. It also gave a TGI [18] of over 100 µM and a TGI [19] of over 100 µM.

`O=C(CCCl)NNC1=NCCCCN1` gave a TGI [1] of over 100 µM, a TGI [2] of over 100 µM and a TGI [3] of over 100 µM. The TGI [4] was over 100 µM, the TGI [5] was over 100 µM and the TGI [6] was over 100 µM. The TGI [7] was over 100 µM, the TGI [8] was over 100 µM and the TGI [9] was over 100 µM. It also gave a TGI [10] of over 100 µM, a TGI [11] of over 100 µM and a TGI [12] of over 100 µM. It also gave a TGI [13] of over 100 µM, a TGI [14] of over 100 µM and a TGI [15] of over 100 µM. For the same molecule, the TGI [16] was over 100 µM, the TGI [17] was over 100 µM and the TGI [18] was over 100 µM. It also gave a TGI [19] of over 100 µM.

`Oc1ccccc1C1=NOC(c2ccc(C(F)(F)F)cc2)C1` (stereo not drawn) gave a TGI [1] of over 50 µM, a TGI [2] of over 50 µM and a TGI [3] of over 50 µM. The TGI [4] was over 50 µM, the TGI [5] was over 50 µM and the TGI [6] was over 50 µM. For the same molecule, the TGI [7] was over 50 µM, the TGI [8] was over 50 µM and the TGI [9] was over 50 µM. For the same molecule, the TGI [10] was over 50 µM, the TGI [11] was over 50 µM and the TGI [12] was over 50 µM. It also gave a TGI [13] of over 50 µM, a TGI [14] of over 50 µM and a TGI [15] of over 50 µM. The TGI [16] was over 50 µM, the TGI [17] was over 50 µM and the TGI [18] was over 50 µM. For the same molecule, the TGI [19] was over 50 µM.

Work on `N#Cc1c(O)cc(=O)n2c1[nH]c1ccccc12` yielded a TGI [1] of over 100 µM, a TGI [2] of over 100 µM and a TGI [3] of over 100 µM. It also gave a TGI [4] of over 100 µM, a TGI [5] of over 100 µM and a TGI [6] of over 100 µM. The TGI [7] was over 100 µM, the TGI [8] was over 100 µM and the TGI [9] was over 100 µM. It also gave a TGI [10] of over 100 µM, a TGI [11] of over 100 µM and a TGI [12] of over 100 µM. The TGI [13] was over 100 µM, the TGI [14] was over 100 µM and the TGI [15] was over 100 µM. The TGI [16] was over 100 µM, the TGI [17] was over 100 µM and the TGI [18] was over 100 µM. For the same molecule, the TGI [19] was over 100 µM.

In the case of `COC(=O)C1=C(C(=O)OC)SC(=C2S[C@@H]3[C@@H]4C[C@H]([C@@H]3S2)[C@H]2C(=O)OC(=O)[C@@H]42)S1`, the TGI [1] is reported as over 100 µM, the TGI [2] is reported as over 100 µM and the TGI [3] is reported as over 100 µM. It also gave a TGI [4] of over 100 µM, a TGI [5] of over 100 µM and a TGI [6] of over 100 µM. For the same molecule, the TGI [7] was over 100 µM, the TGI [8] was over 100 µM and the TGI [9] was over 100 µM. It also gave a TGI [10] of over 100 µM, a TGI [11] of over 100 µM and a TGI [12] of over 100 µM. For the same molecule, the TGI [13] was over 100 µM, the TGI [14] was over 100 µM and the TGI [15] was over 100 µM. The TGI [16] was over 100 µM, the TGI [17] was over 100 µM and the TGI [18] was over 100 µM.

For `CC1(C)C2CC3C4CC5(Nc6ccccc6C5N41)[C@]3(C)CC2=O` (stereo partly drawn), the TGI [1] was over 50 µM, the TGI [2] was over 50 µM and the TGI [3] was over 50 µM. For the same molecule, the TGI [4] was over 50 µM, the TGI [5] was over 50 µM and the TGI [6] was over 50 µM. It also gave a TGI [7] of over 50 µM, a TGI [9] of over 50 µM and a TGI [10] of over 50 µM. The TGI [11] was over 50 µM, the TGI [12] was over 50 µM and the TGI [13] was over 50 µM. The TGI [14] was over 50 µM, the TGI [16] was over 50 µM and the TGI [17] was over 50 µM. It also gave a TGI [18] of over 50 µM and a TGI [19] of over 50 µM.

`COC1=CC(=O)c2c(c(COP(=O)(N(C)CCBr)N(C)CCBr)cn2C)C1=O` showed a TGI [1] of 0.776 µM, a TGI [2] of 0.564 µM and a TGI [3] of 7.02 µM. The TGI [4] was 1.07 µM, the TGI [5] was 0.374 µM and the TGI [6] was over 100 µM. It also gave a TGI [7] of 0.328 µM, a TGI [8] of 0.259 µM and a TGI [9] of 0.314 µM. For the same molecule, the TGI [10] was 0.291 µM, the TGI [11] was over 100 µM and the TGI [12] was 0.616 µM. It also gave a TGI [13] of 1.07 µM, a TGI [14] of 0.371 µM and a TGI [15] of 3.76 µM. It also gave a TGI [16] of 1.71 µM, a TGI [17] of 0.441 µM and a TGI [18] of 2.93 µM. The TGI [19] was 0.983 µM.

`CC(C)CC(NC(=O)C(Cc1ccccc1)NC(=O)C(Cc1c[nH]c2ccccc12)NC(=O)CNC(=O)C(N)Cc1ccc(O)cc1)C(=O)O` (stereo not drawn) (H-YGWFL-OH; configuration not given here) showed a TGI [1] of over 100 µM, a TGI [2] of over 100 µM and a TGI [3] of over 100 µM. The TGI [4] was over 100 µM, the TGI [5] was 95.6 µM and the TGI [6] was 60.9 µM. The TGI [7] was over 100 µM, the TGI [8] was over 100 µM and the TGI [9] was over 100 µM. For the same molecule, the TGI [10] was 72.3 µM, the TGI [11] was over 100 µM and the TGI [12] was over 100 µM. It also gave a TGI [13] of 57.4 µM, a TGI [14] of over 100 µM and a TGI [15] of over 100 µM. For the same molecule, the TGI [16] was over 100 µM, the TGI [17] was 57.4 µM and the TGI [18] was over 100 µM. For the same molecule, the TGI [19] was over 100 µM.

With `O=C1N[C@@H]2c3c(Br)sc(Br)c3C(=O)[C@@H]2O1` the TGI [1] was 42.7 µM, the TGI [2] was 27 µM and the TGI [3] was 18.7 µM. It also gave a TGI [4] of 5.83 µM, a TGI [5] of 1.53 µM and a TGI [6] of 1.96 µM. It also gave a TGI [7] of 18.4 µM, a TGI [8] of 3.81 µM and a TGI [9] of 4.52 µM. For the same molecule, the TGI [10] was 7.63 µM, the TGI [11] was 4.61 µM and the TGI [12] was 24.1 µM. For the same molecule, the TGI [13] was 26 µM, the TGI [14] was 8.1 µM and the TGI [15] was 30.3 µM. For the same molecule, the TGI [16] was 18 µM, the TGI [17] was 25.4 µM and the TGI [18] was 78.7 µM. It also gave a TGI [19] of 27.7 µM.

With `O=C(NC(Nc1ccc(F)cc1)(C(F)(F)F)C(F)(F)F)C(C(F)(F)F)C(F)(F)F` the TGI [1] was over 100 µM, the TGI [2] was over 100 µM and the TGI [3] was over 100 µM. It also gave a TGI [4] of over 100 µM, a TGI [5] of over 89.6 µM and a TGI [6] of 15.1 µM. It also gave a TGI [7] of over 100 µM, a TGI [8] of over 100 µM and a TGI [9] of over 100 µM. It also gave a TGI [10] of over 100 µM, a TGI [11] of 36.2 µM and a TGI [12] of over 100 µM. The TGI [13] was over 100 µM, the TGI [14] was over 100 µM and the TGI [15] was over 100 µM. For the same molecule, the TGI [16] was over 100 µM, the TGI [17] was 60 µM and the TGI [18] was over 90.5 µM. For the same molecule, the TGI [19] was over 100 µM.

With `O=c1c2cc(I)ccc2nc(SCc2n[nH]c(=S)o2)n1Cc1ccccc1` the TGI [1] was 41 µM, the TGI [2] was 52.4 µM and the TGI [3] was 31.3 µM. For the same molecule, the TGI [4] was 33.3 µM, the TGI [5] was 27.8 µM and the TGI [6] was 16.5 µM. For the same molecule, the TGI [7] was 26.2 µM, the TGI [8] was 43.6 µM and the TGI [9] was 40.4 µM. For the same molecule, the TGI [10] was 34.8 µM, the TGI [11] was 65.3 µM and the TGI [12] was 37.1 µM. For the same molecule, the TGI [13] was 40.4 µM, the TGI [14] was 27.6 µM and the TGI [15] was 55.5 µM. It also gave a TGI [16] of 54.2 µM, a TGI [17] of over 100 µM and a TGI [18] of 44.3 µM. The TGI [19] was 39.5 µM.
